The subject of one data set is HepG2 cells. Description: in vitro. To be noted: human, 24 h, 100 mM. How it is done: (§1) First, HepG2 cells were cultured at 37° C. under 5% CO2 atmosphere in a DMEM culture medium containing 10% FBS. Then, the cultured HepG2 cells were seeded on a 24-well plate at a cell density of 3×10^5 cells/well, followed by incubation for 1 day. Then, various concentrations of test substances were added to HepG2 cells, followed by incubation for 24 hours.
(§2) An MTT solution dissolved in PBS at a concentration of 5 mg/mL was diluted to 10% with the culture medium. The solution was dispensed in a volume of 0.5 to 1.0 mL in a 24-well plate and incubated for 4 hours in an incubator.
(§3) After 4 hours of incubation, the culture medium containing the MTT solution was removed, and 1 mL of DMSO was added and was shaken for 10 minutes. Then, absorbance was measured at 540 nm. At this time, as positive controls, the cells were treated with (1) 100 mM ethanol and (2) 100 mM ethanol+100 ppm Silymarin, respectively.
(§4) As a result of the experiment, liver cell viability was quantified. That is, as liver cell viability increases, the liver health improvement effect increases.
(§5) As the absorbance value increases, liver cell viability increases.

A short description of a further data set: in vitro. The settings on record: human. How it is done: as §1, §2, §3, §4, §5
The test system of data set [1] is THP-1 cells and NK-92 cells. Put plainly: Interferon gamma (IFN-γ) production, ELISA. Format: cell-based. The settings on record: positive control. How it is done: To confirm the immune function improvement effect of the plant extracts, the amount of interferon gamma produced in […] and macrophages was measured. First, THP-1 cells, which are macrophages, and NK-92 cells, which are natural killer cells, were suspended in an RPMI (Roswell Park Memorial Institute)-1640 culture medium (for THP-1 cells) and a MEMA (Minimum Essential Media Alpha) culture medium (for NK-92 cells), respectively. The suspended cells were seeded on culture plates (24 wells/96 wells). The plant extracts (sample) diluted to various concentrations were added to the cells. At this time, lipopolysaccharide (LPS) (0.1 to 1 μg/mL) was used as a positive control. The sample-treated cells were placed in a 5% CO2 incubator set to 37° C. and incubated for 24 to 48 hours. Then, the supernatant was taken and used as an analysis sample.
The experiment was performed using an enzyme-linked immunosorbent assay (ELISA) method. After coating a 96-well plate with an IFN-γ primary antibody, 1% bovine serum albumin (BSA) was added to block the remaining space. Then, distilled water (blank), an IFN-γ standard solution, and each sample were added to the wells in an amount of 100 μl and incubated at room temperature for 2 hours. 100 μl of a biotin-bound IFN-γ secondary antibody was added to the wells and incubated at room temperature for 2 hours. 100 μl of avidin-bound horseradish peroxidase (HRP) was added and incubated at room temperature or 37° C. for 30 minutes. 100 μl of a TMB substrate solution was added and incubated at room temperature for 4 to 14 minutes. 50 μl of a stop solution (sulfuric acid) was added to stop the reaction. Absorbance at 450 nm wavelength was measured using an ELISA reader. The IFN-γ content of each sample was calculated based on the absorbance of the standard solution.
In this experiment, the effect of the plant extracts on production of interferon gamma was confirmed. As a result of the experiment, the amount of interferon gamma was quantified. As the level of interferon gamma increases, the degree of improvement in immune function increases.
The absorbance is proportional to the IFN-γ content. In addition, increase in IFN-γ production means that immunity is enhanced, such as promotion of differentiation of T lymphocytes, activation of macrophages, and promotion of production of IgG antibodies in B cells.

Where “and” joins values, the source holds several entries; their conditions need not be identical. Identical values can stand only once.

`CCO` [Ethanol]: the “Liver health-Cell viability (% of control)” value in the data set with HepG2 cells is on record as 68.25 (Ethanol % of control. In “in vitro”, this compound had a viability at 24 h, 100 mM of 68.2%.

In the case of lipopolysaccharide [LPS], in data set [1] (1 ppm), the Immunity-IFNg secretion was 964.24 % of control; the “Immunity-IFNg secretion (% of control)” value is 964.24 % of control and 964.24 (LPS % of control. Moreover, in data set [1] (LPS 1 ppm), the Immunity-IFNg secretion was 964.24 % of control and the “Immunity-IFNg secretion (% of control)” value is given as 964.24 % of control.

For the origin of these results see patent US20230125075A1, “Composition Containing Paper Mulberry Extracts” (LG Household & Health Care Ltd., priority 2020, published 2023).
